US10131652B2, “Pyrimidinyloxy benzene derivatives as herbicides” (E. I. DU PONT DE NEMOURS AND COMPANY, priority 2014, dated 2018)

Columns and labels:
Format in all cases: in vivo
[1] = system: wheat (Triticum aestivum); assay: Test B pre-/postemergence plant response
Summary of the method: (§1)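 Greenhouse pots, loam/sand soil; compound formulated with surfactant in non-phytotoxic solvent. Preemergence soil spray and postemergence spray at 1–2 leaf stage run simultaneously. Visual injury, 0–100, about 10 days post-treatment.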

[2] = system: ragweed (common ragweed, Ambrosia elatior); assay: Test B pre-/postemergence plant response
Summary of the method: as §1

[3] = system: pigweed (Amaranthus retroflexus); assay: Test B pre-/postemergence plant response
Summary of the method: as §1

[4] = system: Italian ryegrass (Lolium multiflorum); assay: Test B pre-/postemergence plant response
Summary of the method: as §1

[5] = system: barnyardgrass (Echinochloa crus-galli); assay: Test B pre-/postemergence plant response
Summary of the method: as §1

[6] = system: kochia (Kochia scoparia); assay: Test B pre-/postemergence plant response
Summary of the method: as §1

[7] = system: giant foxtail (Setaria faberii); assay: Test B pre-/postemergence plant response
Summary of the method: as §1

[8] = system: corn (Zea mays); assay: Test B pre-/postemergence plant response
Summary of the method: as §1

[9] = system: blackgrass (Alopecurus myosuroides); assay: Test B postemergence plant response
Summary of the method: (§2)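 Injury was assessed visually about 10 days after treatment, scored from 0 (no effect) to 100 (complete control) by comparison with untreated controls. Test chemicals had been applied postemergence to potted plants at the one- to two-leaf stage, grown in loam soil and sand in a greenhouse.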

[10] = system: galium (catchweed bedstraw, Galium aparine); assay: Test B postemergence plant response
Summary of the method: as §2

[11] = system: rice (Oryza sativa); assay: Test C flooded paddy test plant response; conditions: Flood, 250 g ai/ha; scale of 0 to 100 where 0 is no effect and 100 is complete control; 13 to 15 days
Summary of the method: (§3)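 2-leaf plants; flood 3 cm, cpd into paddy water; greenhouse 13–15 d; visual score vs untreated, 0 = no effect, 100 = complete control; dash = no result.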

[12] = system: small-flower umbrella sedge (Cyperus difformis); assay: Test C flooded paddy test plant response; conditions: Flood, 250 g ai/ha; scale of 0 to 100 where 0 is no effect and 100 is complete control; 13 to 15 days
Summary of the method: as §3

[13] = system: barnyardgrass (Echinochloa crus-galli); assay: Test C flooded paddy test plant response; conditions: Flood, 250 g ai/ha; scale of 0 to 100 where 0 is no effect and 100 is complete control; 13 to 15 days
Summary of the method: as §3

[14] = system: ducksalad (Heteranthera limosa); assay: Test C flooded paddy test plant response; conditions: Flood, 250 g ai/ha; scale of 0 to 100 where 0 is no effect and 100 is complete control; 13 to 15 days
Summary of the method: as §3

[15] = 31 g ai/ha, Postemergence, 0 to 100 scale, 0 no effect, 100 complete control
[16] = 125 g ai/ha, postemergence, 0 to 100 scale, 0 no effect, 100 complete control
[17] = Preemergence, 31 g ai/ha, 0 to 100 scale (0 no effect, 100 complete control)
[18] = Preemergence, 125 g ai/ha, 0 to 100 scale where 0 is no effect and 100 is complete control
[19] = 31 g ai/ha, Preemergence, 0 to 100 scale where 0 is no effect and 100 is complete control
[20] = Postemergence, 500 g ai/ha, 0 to 100 scale (0 no effect, 100 complete control)
[21] = Preemergence, 500 g ai/ha, 0 to 100 scale where 0 is no effect and 100 is complete control

| Compound | Plant response rating, Wheat [1, 15] | Plant response rating, Wheat [1, 16] | Plant response rating, Ragweed [2, 15] | Plant response rating, Ragweed [2, 16] | Plant response rating, Ragweed [2, 18] | Plant response rating, Pigweed [3, 16] | Plant response rating, Ryegrass, Italian [4, 16] | Plant response rating, Barnyardgrass [5, 16] | Plant response rating, Barnyardgrass [5, 18] | Plant response rating, Kochia [6, 16] | Plant response rating, Kochia [6, 18] | Plant response rating, Foxtail, Giant [7, 16] | Plant response rating, Foxtail, Giant [7, 18] | Plant response rating, Corn [8, 16] | Plant response rating, Blackgrass [9, 16] | Plant response rating, Galium [10, 16] | Rice plant response rating [11] | Sedge, Umbrella plant response rating [12] | Barnyardgrass plant response rating [13] | Ducksalad plant response rating [14] | other results |
| --- | --- | --- | --- | --- | --- | --- | --- | --- | --- | --- | --- | --- | --- | --- | --- | --- | --- | --- | --- | --- | --- |
| CC(C)n1nc(C(F)(F)F)cc1-c1c(C#N)cccc1Oc1ncc(Cl)cn1 [Compound 90] | 0 | 0 | 0 | 0 | 0 | 10 | 0 | 0 | 0 | 10 | 0 | 0 | 0 | 0 | 0 | 30 | 0 | 0 | 0 | 0 | Ragweed plant response rating [2, 17]: 0; Plant response rating, Pigweed [3, 15]: 0; Pigweed plant response rating [3, 17]: 0; Plant response rating, Pigweed [3, 18]: 20; Plant response rating, Ryegrass, Italian [4, 15]: 0; Ryegrass, Italian plant response rating [4, 17]: 0; Plant response rating, Ryegrass, Italian [4, 18]: 0; Plant response rating, Barnyardgrass [5, 15]: 0; Barnyardgrass plant response rating [5, 17]: 0; Plant response rating, Kochia [6, 15]: 0; Kochia plant response rating [6, 17]: 0; Plant response rating, Foxtail, Giant [7, 15]: 0; Foxtail, Giant plant response rating [7, 17]: 0; Plant response rating, Corn [8, 15]: 0; Plant response rating, Blackgrass [9, 15]: 0; Plant response rating, Galium [10, 15]: 0 |
| N#Cc1cccc(Oc2ncc(Cl)cn2)c1-c1ccsc1 [Compound 112] | 0 | 0 | 20 | 30 | – | 30 | 0 | 30 | 30 | 70 | 50 | 60 | 70 | 20 | 20 | 50 | 0 | 95 | 0 | 30 | Plant response rating, Ragweed [2, 19]: 0; Plant response rating, Pigweed [3, 15]: 30; Plant response rating, Pigweed [3, 19]: 30; Plant response rating, Ryegrass, Italian [4, 15]: 0; Plant response rating, Ryegrass, Italian [4, 19]: 0; Plant response rating, Barnyardgrass [5, 15]: 10; Plant response rating, Barnyardgrass [5, 19]: 10; Plant response rating, Kochia [6, 15]: 60; Plant response rating, Kochia [6, 19]: 0; Plant response rating, Foxtail, Giant [7, 15]: 10; Plant response rating, Foxtail, Giant [7, 19]: 10; Plant response rating, Corn [8, 15]: 10; Plant response rating, Blackgrass [9, 15]: 0; Plant response rating, Galium [10, 15]: 30 |
| Cn1nnnc1-c1ccccc1Oc1ncc(Br)cn1 [Compound 49] | – | 10 | – | 30 | 0 | 10 | 0 | 0 | 0 | 30 | 0 | 0 | 0 | 0 | 0 | 20 | 0 | 0 | 0 | 0 | Plant response rating, Wheat [1, 20]: 20; Plant response rating, Ragweed [2, 20]: 30; Plant response rating, Ragweed [2, 21]: 0; Plant response rating, Pigweed [3, 20]: 30; Plant response rating, Pigweed [3, 18]: 20; Plant response rating, Pigweed [3, 21]: 30; Plant response rating, Ryegrass, Italian [4, 20]: 0; Plant response rating, Ryegrass, Italian [4, 18]: 0; Plant response rating, Ryegrass, Italian [4, 21]: 0; Plant response rating, Barnyardgrass [5, 20]: 10; Plant response rating, Barnyardgrass [5, 21]: 0; Plant response rating, Kochia [6, 20]: 30; Plant response rating, Kochia [6, 21]: 70; Plant response rating, Foxtail, Giant [7, 20]: 10; Plant response rating, Foxtail, Giant [7, 21]: 20; Plant response rating, Corn [8, 20]: 10; Plant response rating, Blackgrass [9, 20]: 10; Plant response rating, Galium [10, 20]: 60 |
